We go through two compounds from PMC9283466, “In silico identification of two peptides with antibacterial activity against multidrug-resistant Staphylococcus aureus” (NPJ Biofilms and Microbiomes, 2022).

In brackets after ≈: the same amount, converted by molar mass. Bridge positions count the residues as written; N and C are the ends. Peptide text beside a SMILES is read from it.

Assay [1] concerns LTA-driven NF-kB activation, eLUCidate Raw 264.7 NF-kB reporter cell line. Description: Anti-inflammatory activity, NF-kB luciferase reporter. The following applies: 10 µg/ml LTA from S. aureus, 6 h. It counts as cell-based, murine. The procedure: (§1) The inhibitory activity of HG2, HG4 and comparator compounds against LPS and LTA was assessed using eLUCidate™ Raw 264.7 NF-kB reporter cell line (AMSBIO) as previously described. The eLUCidate NF-kB reporter cell line is a stably transfected Raw 264.7 cell line which expresses the Renilla luciferase reporter gene under the transcriptional control of the NF-kB response element, a key transcription factor involved in immune and inflammatory responses. This reporter cell line has been used to measure the induction of various toll-like receptors (TLR) by ligands, including LPS and LTA, therefore providing an effective way to evaluate inhibitors of their activations. Briefly, cells were grown and maintained following the manufacturer’s instructions in Dulbecco’s modified essential medium (DMEM) supplemented with 10% fetal calf serum (FCS), 1% L-glutamine, 1% antibiotics (Invitrogen) and containing 3 µg/ml of puromycin (Sigma-Aldrich, UK). To test the inhibitory activity of HG2 and HG4 on LPS or LTA-driven NF-kB activation, eLUCidate™ Raw 264.7 cells grown on 75 cm^2 flasks were detached using trypsin-EDTA solution (Thermofisher, UK) and seeded into 96-well cell culture plates (Greiner Bio-one, UK) at ~25,000 cells per well (counted using Mallasez’s chamber). The next day, wells were emptied, and cells were exposed to optimal concentrations of LPS or LTA determined from preliminary experiments, (i.e. 10 ng/ml of LPS from E. coli or 10 µg/ml of LTA from S. aureus (Invivogen, UK)) in the presence of increasing concentrations of HG2 or HG4 (from 0 to 500 µg/ml, serial 1:2 dilutions). Pyrrolidine dithiocarbamate (PDTC, 100 µM) and polymyxin B (PMB, 100 µM) (Sigma-Aldrich, UK) were used as positive controls based on their well-known activity as anti-inflammatory molecules and blockers/neutralisers of LPS and LTA, respectively. Importantly, all steps were performed using non-pyrogenic plastics and RNase/DNase molecular biology tips to limit the risk of the presence of a trace of LPS/LTA. After 6 h incubation at 37 °C and 5% CO2, wells were emptied, and the cells were treated with 70 µl of ice-cold PBS containing 1% Triton X-100. After 10 min incubation on ice under orbital shaking at 200 rpm, 50 µL of cell lysates were collected and transferred into white 96-well luminescence plates (Dominique Dutscher) already containing 100 µL of Renilla luciferase substrate (Yelen, France). Luminescence signals of the wells were immediately measured using a microplate reader (Biotek Synergy Mx, UK). The luminescence values were expressed as a percentage of control inflammation corresponding to values obtained after treatment with LPS or LTA in the absence of an inhibitor. The IC50 values of PDTC, PMB, HG2 or HG4 on LPS or LTA-mediated inflammation (i.e. the concentration of molecule causing a reduction of 50% of the luciferase’s induction caused by LPS or LTA) were calculated using GraphPad® Prism 7 software.
In general terms: In a reporter assay the amount or activity of a reporter protein is the signal.

Assay [2] has as its system LPS-driven NF-kB activation, eLUCidate Raw 264.7 NF-kB reporter cell line. The assay is described as above. The format is cell-based, murine. Conditions: 10 ng/ml LPS from E. coli, 6 h. The procedure:
as §1

Assay [3] has as its system P. aeruginosa PA01. As to the kind of experiment: microbe, parasite or virus in culture. The format is cell-based, Pseudomonas aeruginosa. The procedure:
(§2) To determine the antimicrobial activity of the new antimicrobial peptides, HG2 and HG4, their minimum inhibitory concentrations (MICs) were determined by broth microdilution method[51] in cation adjusted Mueller Hinton broth (MHB) following the International Organisation for Standardisation (ISO) 20776-1 standard for MIC testing using a final bacterial inoculum of 5 × 10^5 CFU/ml[52]. […] The peptides dissolved in sterile distilled water were added to bacteria culture and incubated overnight at appropriate conditions. The MICs of the peptides and comparator antibiotics were recorded after 18–24 h. The minimum bactericidal concentrations (MBCs) were also determined and were taken as the lowest concentration of the antimicrobial that prevented the growth of bacterial cells after the subculture of cells (from MIC treatment) onto antibiotic-free media.

For assay [4], the system named is P. aeruginosa (CF) AMT0060. As to the kind of experiment: microbe, parasite or virus in culture. It counts as cell-based, Pseudomonas aeruginosa. The following applies: CF) AMT0060. The procedure: as §2
Assay [5] relates to P. aeruginosa (CF) C3719. As to the kind of experiment: microbe, parasite or virus in culture. The format is cell-based, Pseudomonas aeruginosa. Conditions: CF) C3719. The procedure: as §2
Assay [6] is described as follows: Pure lipid preference order from critical pressure of insertion. The format is binding. The following applies: pure bacterial and eukaryotic lipids. The procedure:
Peptide–lipid interaction was measured using a lipid monolayer formed at the air:water interface with total lipid extracts and pure lipids. Total lipids were extracted from overnight cultures of MRSA or human erythrocytes using the Folch extraction procedure[14],[40]. Extracted total lipids were dried, re-solubilised in chloroform:methanol (2:1, v/v) and stored at −20 °C under nitrogen. […] The variation of the surface pressure caused by peptide insertion was then continuously monitored using a fully automated microtensiometer (µTROUGH SX, Kibron Inc, Finland) until it reached equilibrium (maximal surface pressure increase is usually obtained after 15–25 min). […] In other experiments, the critical pressure of insertion of HG2 or HG4 in the total lipid extracts and pure lipids was measured as follows[14],[56]. Briefly, in these experiments, the initial pressure of the lipid monolayer was set up at different values (between 10 and 30 mN/m) and the variation of pressure caused by the injection of the peptide was measured. […] All experiments were carried out in a controlled atmosphere at 20 ± 1 °C and data were analyzed using the Firmware 2.5 programme (Kibron Inc.). The accuracy of the system under our experimental conditions was determined to be ±0.25 mN/m for surface pressure measurements.

For `CC[C@H](C)[C@H](NC(=O)[C@H](CC(C)C)NC(=O)[C@H](CC(C)C)NC(=O)[C@H](CC(C)C)NC(=O)[C@H](CCCCN)NC(=O)[C@H](CCCCN)NC(=O)[C@@H](N)CCSC)C(=O)N[C@@H](CC(C)C)C(=O)N[C@@H](Cc1ccccc1)C(=O)N[C@H]1CSSC[C@@H](C(=O)N[C@@H](CCCCN)C(=O)N[C@@H](CCCCN)C(=O)N[C@@H](C)C(=O)N2CCC[C@H]2C(N)=O)NC(=O)CNC(=O)[C@H](C)NC(=O)[C@H](CC(C)C)NC(=O)[C@H](C)NC(=O)[C@H](CC(C)C)NC(=O)[C@H](C)NC(=O)[C@H](CC(C)C)NC1=O` [HG2] (H-MKKLLLILFCLALALAGCKKAP-NH2; disulfide 10-18; N-terminus assumed), in assay [1], the “IC50, LTA-mediated inflammation” value came to 91.49 ± 6.03 µg/mL. The “IC50, LPS-mediated inflammation” value in assay [2] worked out at 73.99 ± 3.40 µg/mL. Also, the results for the MIC in assay [3], in assay [4] and in assay [5] were greater than 512 µg/mL, 256 µg/mL (≈ 109 µM) and 64 µg/mL (≈ 27.2 µM), respectively. Also, in assay [6], the “order of preference for pure lipids (critical pressure of insertion)” value is reported as “PC > PG > LTA > Cardio > PE > LPS”.

With `CC[C@H](C)[C@H](NC(=O)[C@H](CC(C)C)NC(=O)[C@H](CC(C)C)NC(=O)[C@H](C)NC(=O)CNC(=O)CNC(=O)[C@@H](NC(=O)[C@@H](NC(=O)[C@H](CC(C)C)NC(=O)[C@H](C)NC(=O)[C@H](CC(C)C)NC(=O)CNC(=O)[C@H](CC(C)C)NC(=O)[C@@H](N)C(C)C)[C@@H](C)CC)C(C)C)C(=O)N[C@@H](CCCCN)C(=O)N[C@@H](CCCCN)C(=O)N[C@@H](CCCCN)C(=O)N[C@@H](CCC(N)=O)C(=O)N[C@@H](C)C(=O)N[C@@H](CCCCN)C(=O)N[C@@H](CO)C(N)=O` [HG4] (H-VLGLALIVGGALLIKKKQAKS-NH2; N-terminus and C-terminus assumed), the “IC50, LTA-mediated inflammation” value in assay [1] is 26.45 ± 3.11 µg/mL. The “IC50, LPS-mediated inflammation” value in assay [2] was found to be 113.80 ± 5.00 µg/mL. The MIC in assay [3] was greater than 512 µg/mL; in assay [4], 256 µg/mL (≈ 121 µM); in assay [5], 128 µg/mL (≈ 60.4 µM). In addition, the “order of preference for pure lipids (critical pressure of insertion)” value in assay [6] is listed as “PG > cardiolipin > LTA > LPS > PE > PC”.
